Reference: PMC8686256, “DZNep promotes mouse bone defect healing via enhancing both osteogenesis and osteoclastogenesis” (Stem Cell Research & Therapy, 2021)

Tests used:
Format in all cases: cell-based, mouse
[1] = test system: osteoclast-related genes in BMMs; test: qPCR of osteoclast-related genes in BMMs
Procedure: BMMs were cultured in 6-well plates at the density of 2 × 10^5 cells/well in α-MEM supplemented with M-CSF (30 ng/ml), RANKL (50 ng/ml). The cells were then treated with or without 25 nM DZNep for 0, 1, 3, 5 days, or with various concentrations of DZNEP (0, 6.25, 25 nM) for 5 days, or with negative control siRNA, negative control siRNA with DZNep, and Foxc1 small interfering RNA (siRNA) with DZNep for 5 days. Once the culture completed, the Axygen RNA Miniprep Kit (Axygen, Union City, CA, USA) was used to extract the total RNA. BMSC were seeded in a 6-well plate at a number of 4 × 10^5 cells/well and treated with 0, 25, 50, 100 nM of DZNep combined with osteoblast-cultured medium for 24 h, or with or without 100 nM DZNep combined with osteoblast-cultured medium for 0 and 7 days, or with negative control siRNA, negative control siRNA with DZNep, and Wnt4 small interfering RNA (siRNA) with DZNep combined with osteoblast-cultured medium for 7 days. Once the culture completed, the Axygen RNA Miniprep Kit (Axygen, Union City, CA, USA) was used to extract the total RNA. After reverse transcription to obtain cDNA from the RNA template by using the Prime Script RT reagent Kit was finished. The real-time PCR assay was subsequently performed by using the SYBR® Premix Ex Taq™ II on an ABI 7500 Sequencing Detection System (Applied Biosystems, Foster City, CA). Specifically, total volume of 10 μl liquid consisted by 5 μl of SYBR® Premix Ex Taq™ II, 1 μl of diluted cDNA, 0.4 μl of mixed forward and reverse primer, and 3.6 μl of ddH2O was added into each hole of 384 PCR plate. Conditions of the 40 cycles were: 95 °C for 5 s and 60 °C for 30 s. The melting curves and reverse transcription PCR (RT-PCR) were the methods to detect the specificity of amplification product. Each target’s quantity, run in triplicate, was normalized to Actin Beta (Actb). […]

[2] = test system: NF-κB signaling pathway; test: Western blotting and immunofluorescence of NF-κB signaling pathway
Procedure: (§1) To explore the variation of the proteins on long-term activated signaling, BMMs were cultured in α-MEM containing M-CSF (30 ng/ml) and RANKL (50 ng/ml) at a density of 2 × 10^5 cells/well on 6-well plates. After 24 h, the BMMs were treated with or without 25 nM DZNep for 0, 1, 3, and 5 days, and total protein was obtained, respectively, on these specific time points. To determine the effect of DZNep on the protein of short-time activated phosphorylated, RAW264.7 cells were cultured in α-MEM at a density of 5 × 10^5 cells/well on 6-well plates. One day later, the cells were treated with the serum-free α-MEM in the presence or absence of DZNEP for 3 hand then stimulated with 50 ng/mL RANKL for 0, 10, 20, 30, and 60 min. To determine the efficiency of EZH2 shRna, BMMs were cultured in α-MEM at a density of 5 × 10^5 cells/well on 6-well plates. One day later, the cells were treated with negative control shRNA or different EZH2 shRNA for 2 days. To determine the efficiency of Foxc1 siRna, BMMs were cultured in α-MEM at a density of 5 × 10^5 cells/well on 6-well plates. […] After TBST wash for 3 times, the secondary fluorescence antibodies were incubated without light for 1 h at room temperature and the reactivity was visualized by using Odyssey V3.0 image scanning (Li-COR. Inc., Lincoln, NE, USA). […]

[3] = test system: EZH2 and H3K27me3; test: Western blotting of EZH2 and H3K27me3 in BMMs; settings: 25 nM; 0, 1, 3, 5 days with RANKL, vs control
Procedure: as §1

For `Nc1nccc2c1ncn2C1C=C(CO)C(O)C1O` (stereo not drawn) [DZNep, 3-Deazaneplanocin], the “expression of Trap, Ctsk, Atp6v0d2 (qPCR)” value ([1]; 25 nM, 0, 1, 3, 5 days) was “significantly enhanced in a time-dependent manner”, the “mRNA expression of Foxc1 in BMMs” value ([1]; RANKL and DZNep treatment for 5 days) was “upregulated” and the “expression of Calcr, c-FOS, Nfatc1, Trap, Ctsk, Atp6v0d2 (qPCR)” value ([1]; indicated DZNep concentrations, 5 days) was “upregulated in a dose-dependent manner”. The NF-κB nuclear translocation ([2]; 25 nM pretreatment, then RANKL) was “enhancement of NF-κB nuclear translocation”, the “phosphorylation of IKK, IκB, and p65” value ([2]; RAW264.7, 25 nM pretreatment, RANKL for specific times) was “further promoted over time” and the “EZH2 and H3K27me3 expression in BMMs” value [3] was “decreased at a time manner”.
